Source: PubChem BioAssay AID194 (DTP/NCI, 2004)
Results filed as inconclusive are left out.

Test system: BDF1 mice, B16 melanoma s.c., survival/tumor T/C
Assay: NCI In Vivo Anticancer Drug Screen. Data for tumor model B16 Melanoma (subcutaneous) in B6D2F1 (BDF1) mice
Protocol: The antitumor activity of compounds was measured in mice bearing transplantable tumors. Survival or tumor size were measured and the results are expressed as the measurement made in the treated group (T) divided by the measurement made in the vehicle treated control group (C). The tumor model used in this assay is B16 Melanoma (subcutaneous) in B6D2F1 (BDF1) mice

In the case of O=[N+]([O-])O.[Ga], the T/C (endpoint: median survival time, dose: 4.0 mg/kg/injection, schedule: Q01DX009 (ip), vehicle: saline, higher = longer survival) is reported as 109 % of control, the T/C (endpoint: median survival time, dose: 16.0 mg/kg/injection, schedule: Q01DX009 (ip), vehicle: saline, higher = longer survival) is reported as 91 % of control and the T/C (endpoint: median survival time, dose: 32.0 mg/kg/injection, schedule: Q01DX009 (ip), vehicle: saline, higher = longer survival) is reported as 86 % of control. For the same compound, the T/C (endpoint: median survival time, dose: 40.0 mg/kg/injection, schedule: Q01DX009 (ip), vehicle: saline, higher = longer survival) was 99 % of control, the T/C (endpoint: median survival time, dose: 64.0 mg/kg/injection, schedule: Q01DX009 (ip), vehicle: saline, higher = longer survival) was 95 % of control and the T/C (endpoint: median survival time, dose: 90.0 mg/kg/injection, schedule: Q01DX009 (ip), vehicle: saline, higher = longer survival) was 104 % of control. For the same compound, the T/C (endpoint: median survival time, dose: 200.0 mg/kg/injection, schedule: Q04DX003 (ip), vehicle: saline, higher = longer survival) was 99 % of control, the T/C (endpoint: median survival time, dose: 400.0 mg/kg/injection, schedule: Q01DX001 (ip), vehicle: saline, higher = longer survival) was 100 % of control and the T/C (endpoint: median survival time, dose: 600.0 mg/kg/injection, schedule: Q01DX001 (ip), vehicle: saline, higher = longer survival) was 100 % of control.

CCN(CC)CCNc1ccc(CO)c2sc3ccccc3c(=O)c12 was tested, and the T/C (endpoint: median survival time, dose: 34.0 mg/kg/injection, schedule: Q01DX005 (ip), vehicle: water, higher = longer survival) was 105 % of control, the T/C (endpoint: median tumor weight (est.), dose: 34.0 mg/kg/injection, schedule: Q01DX005 (ip), vehicle: water, higher = larger tumour) was 55 % of control and the T/C (endpoint: median tumor weight (est.), dose: 50.0 mg/kg/injection, schedule: Q01DX005 (ip), vehicle: water, higher = larger tumour) was 72 % of control. The T/C (endpoint: median tumor weight (est.), dose: 75.0 mg/kg/injection, schedule: Q01DX005 (ip), vehicle: water, higher = larger tumour) was 28 % of control.

In the case of COC1C(O)C(C)OC(OC2C(Oc3cccc4c(O)c5c(=O)oc6ccc(C)c7c(=O)oc(c34)c5c67)OC(C)C(O)C2O)C1O (stereo not drawn), the T/C (endpoint: median survival time, dose: 6.25 mg/kg/injection, schedule: Q01DX009 (ip), vehicle: other, higher = longer survival) is reported as 95 % of control, the T/C (endpoint: median survival time, dose: 12.5 mg/kg/injection, schedule: Q01DX009 (ip), vehicle: other, higher = longer survival) is reported as 104 % of control and the T/C (endpoint: median survival time, dose: 25.0 mg/kg/injection, schedule: Q01DX009 (ip), vehicle: other, higher = longer survival) is reported as 100 % of control. The T/C (endpoint: median survival time, dose: 50.0 mg/kg/injection, schedule: Q01DX009 (ip), vehicle: other, higher = longer survival) was 101 % of control.

For O=C(NP(=O)(N1CC1)N1CC1)c1cc(I)ccc1I, the T/C (endpoint: median survival time, dose: 1.0 mg/kg/injection, schedule: Q02DX009 (ip), vehicle: saline with Tween-80, higher = longer survival) was 96 % of control, the T/C (endpoint: median survival time, dose: 1.0 mg/kg/injection, schedule: Q02DX009 (ip), vehicle: saline, higher = longer survival) was 103 % of control and the T/C (endpoint: median survival time, dose: 4.0 mg/kg/injection, schedule: Q01DX001 (oral), vehicle: saline with Tween-80, higher = longer survival) was 98 % of control. For the same compound, the T/C (endpoint: median survival time, dose: 4.0 mg/kg/injection, schedule: Q02DX009 (ip), vehicle: saline with Tween-80, higher = longer survival) was 95 % of control, the T/C (endpoint: median survival time, dose: 4.0 mg/kg/injection, schedule: Q02DX009 (ip), vehicle: saline, higher = longer survival) was 180 % of control and the T/C (endpoint: median survival time, dose: 8.0 mg/kg/injection, schedule: Q01DX001 (oral), vehicle: saline with Tween-80, higher = longer survival) was 92 % of control. For the same compound, the T/C (endpoint: median survival time, dose: 8.0 mg/kg/injection, schedule: Q02DX009 (ip), vehicle: saline with Tween-80, higher = longer survival) was 88 % of control, the T/C (endpoint: median survival time, dose: 8.0 mg/kg/injection, schedule: Q02DX009 (ip), vehicle: saline, higher = longer survival) was 153 % of control and the T/C (endpoint: median survival time, dose: 16.0 mg/kg/injection, schedule: Q01DX001 (oral), vehicle: saline with Tween-80, higher = longer survival) was 91 % of control. The T/C (endpoint: median survival time, dose: 16.0 mg/kg/injection, schedule: Q02DX009 (ip), vehicle: saline with Tween-80, higher = longer survival) was 117 % of control, the T/C (endpoint: median survival time, dose: 16.0 mg/kg/injection, schedule: Q02DX009 (ip), vehicle: saline, higher = longer survival) was 180 % of control and the T/C (endpoint: median survival time, dose: 32.0 mg/kg/injection, schedule: Q01DX001 (oral), vehicle: saline with Tween-80, higher = longer survival) was 93 % of control. For the same compound, the T/C (endpoint: median survival time, dose: 32.0 mg/kg/injection, schedule: Q02DX009 (ip), vehicle: saline, higher = longer survival) was 97 % of control, the T/C (endpoint: median survival time, dose: 64.0 mg/kg/injection, schedule: Q01DX001 (oral), vehicle: saline with Tween-80, higher = longer survival) was 105 % of control and the T/C (endpoint: median survival time, dose: 512.0 mg/kg/injection, schedule: Q01DX001 (oral), vehicle: saline with Tween-80, higher = longer survival) was 88 % of control.

For ClC1=NC(Cl)C(Cl)=N/C1=N\c1ncn[nH]1 (stereo not drawn), the T/C (endpoint: median survival time, dose: 4.0 mg/kg/injection, schedule: Q01DX009 (ip), vehicle: Klucel (hydroxypropylcellulose) (HPC), higher = longer survival) was 106 % of control, the T/C (endpoint: median survival time, dose: 4.0 mg/kg/injection, schedule: Q01DX009 (ip), vehicle: water, higher = longer survival) was 89 % of control and the T/C (endpoint: median survival time, dose: 8.0 mg/kg/injection, schedule: Q01DX009 (ip), vehicle: Klucel (hydroxypropylcellulose) (HPC), higher = longer survival) was 113 % of control. The T/C (endpoint: median survival time, dose: 16.0 mg/kg/injection, schedule: Q01DX009 (ip), vehicle: Klucel (hydroxypropylcellulose) (HPC), higher = longer survival) was 101 % of control, the T/C (endpoint: median survival time, dose: 16.0 mg/kg/injection, schedule: Q01DX009 (ip), vehicle: water, higher = longer survival) was 170 % of control and the T/C (endpoint: median survival time, dose: 32.0 mg/kg/injection, schedule: Q01DX009 (ip), vehicle: water, higher = longer survival) was 121 % of control.
